Holding throughout (type): cell-based
Assay [1] deals with Ba/F3 EGFR-V769_D770insASV (Homo sapiens, UniProt P00533, DUP767-769, cells depend on it). Nature of the assay: Cell proliferation assay (CellTiter-Glo), Ba/F3 EGFR-V769_D770insASV cells. As to conditions: 72 hrs, CTG assay, * = average of multiple measurements, read-out: Ba/F3 EGFR-V769_D770insASV (nM), IC50 of cell proliferation. The procedure: (§1) I. Cell proliferation assay (i) Reagents and consumables • Fetal bovine serum (FBS) (GBICO, Cat #10099-141); • CellTiter-Glo® Luminescent Cell Viability Assay Kit (Promega, Cat #G7572); • Black transparent flat-bottomed 96-well plate (Corning®, Cat #3603).
Chain of Ba/F3 EGFR-V769_D770insASV (P00533 with tags, fused parts or gaps DUP767-769): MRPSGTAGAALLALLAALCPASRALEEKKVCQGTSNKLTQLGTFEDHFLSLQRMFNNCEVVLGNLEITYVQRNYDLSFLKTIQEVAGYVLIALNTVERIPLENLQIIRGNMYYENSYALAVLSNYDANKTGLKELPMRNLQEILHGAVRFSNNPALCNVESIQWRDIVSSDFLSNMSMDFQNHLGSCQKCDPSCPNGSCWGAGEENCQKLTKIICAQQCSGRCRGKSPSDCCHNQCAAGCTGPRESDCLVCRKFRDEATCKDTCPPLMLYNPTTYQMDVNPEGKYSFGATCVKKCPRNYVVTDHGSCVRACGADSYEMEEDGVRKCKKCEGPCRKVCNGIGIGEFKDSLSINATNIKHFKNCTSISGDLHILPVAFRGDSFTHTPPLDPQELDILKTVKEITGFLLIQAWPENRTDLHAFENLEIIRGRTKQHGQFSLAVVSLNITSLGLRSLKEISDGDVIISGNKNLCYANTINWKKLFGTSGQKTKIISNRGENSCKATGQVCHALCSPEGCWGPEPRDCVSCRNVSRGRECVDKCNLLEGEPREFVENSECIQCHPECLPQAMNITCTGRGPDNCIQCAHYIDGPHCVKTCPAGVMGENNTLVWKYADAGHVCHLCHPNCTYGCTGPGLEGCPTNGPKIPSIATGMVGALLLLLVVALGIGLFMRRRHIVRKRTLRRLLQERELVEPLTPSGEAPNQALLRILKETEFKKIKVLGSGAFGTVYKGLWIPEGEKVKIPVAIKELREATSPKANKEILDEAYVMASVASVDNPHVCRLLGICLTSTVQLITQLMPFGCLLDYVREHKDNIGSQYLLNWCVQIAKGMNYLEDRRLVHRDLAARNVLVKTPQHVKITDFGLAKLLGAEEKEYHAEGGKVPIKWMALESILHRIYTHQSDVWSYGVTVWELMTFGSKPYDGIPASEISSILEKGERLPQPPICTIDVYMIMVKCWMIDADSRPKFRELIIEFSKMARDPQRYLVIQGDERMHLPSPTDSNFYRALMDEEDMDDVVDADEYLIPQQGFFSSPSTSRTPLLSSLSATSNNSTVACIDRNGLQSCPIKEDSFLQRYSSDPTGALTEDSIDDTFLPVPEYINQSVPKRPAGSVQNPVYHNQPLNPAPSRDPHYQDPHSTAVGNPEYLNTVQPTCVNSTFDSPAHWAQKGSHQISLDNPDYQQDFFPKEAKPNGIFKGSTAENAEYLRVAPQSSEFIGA
(§2) • SpectraMax Multi-Label Microplate Detector MD, 2104-0010A; • CO2 incubator, Thermo Scientific 3100 Series; • Biosafety cabinet, Thermo Scientific, 1300 Series type A2; • Inverted microscope, Olympus, CKX41SF; • Siemens refrigerator KK25E76TI. (iii) Cell lines and culture conditions
(§3) (iv) Experimental procedures 1. Cell culture and seeding: • (1) Cells in the logarithmic growth phase were harvested, and counted using a platelet counter. Cell viability was detected by the trypan blue exclusion assay to ensure that the cell viability was above 90%. • (2) The cell concentration was adjusted to achieve the final density; and 90 μL of the cell suspension was added to the 96-well plate. • (3) The cells were incubated in the 96-well plate overnight at 37° C. in the presence of 5% CO2 with 95% humidity. 2. TO benchmark data: • (1) 10 μL of PBS was added to each well of the TO flat plate containing the cells. • (2) The CTG reagent was thawed, and the cell plate was equilibrated to room temperature for 30 min. • (3) An equal volume of CTG solution was added to each well. • (4) The cells were shaken for 5 min on an orbital shaker for lysis. • (5) The cell plate was left at room temperature for 20 min to stabilize luminescent signals. • (6) The values of TO luminescent signals were read. 3. Compound dilution and addition • (1) According to the compound information table, a corresponding volume of DMSO was added to the corresponding compound powder to prepare a 10 mM stock solution. • (2) Compound solutions diluted at 1000 fold and 3.16 fold were prepared. • (3) The compound solution diluted at 1000 fold was diluted at 100 fold with PBS, to prepare the compound solutions at 10 fold in 9 concentrations, with the maximum concentration of […]; and the compound solution was diluted at 3.16 fold. 10 μL of medicament solution was added to each well of the seeded 96-well plate. Three replicate wells were provided for each concentration of the compound, and the final concentration of DMSO was 0.1%. • (4) Cells were placed in the 96-well plate containing the medicament and subsequently cultured for 72 hrs at 37° C. in the presence of 5% CO2 with 95% humidity, and then, CTG assay was conducted. 4. Reading of luminescent signals • (1) The CTG reagent was thawed, and the cell plate was equilibrated to room temperature for 30 min. • (2) An equal volume of CTG solution was added to each well. • (3) The cells were shaken for 5 min on an orbital shaker for lysis.
(§4) (4) The cell plate was left at room temperature for 20 min to stabilize the luminescent signals. • (5) Luminescent values were read. Data processing
(§5) The data were analyzed using software GraphPad Prism 7.0, and fitted by the nonlinear S-curve regression to obtain a dose-effect curve, based on which the IC50 value (unit: nM) was calculated, with the specific test results shown in Table 1.
(§6) Cell viability (%)=(Lum test medicament-Lum culture medium control)/(Lum cell control-Lum culture medium control)×100%.
(Cellular ATP, detected with luciferase, serves as a proxy for viable cell number.)

Another assay has as its system A431 (EGFR-WT). Nature of the assay: Cell proliferation assay (CellTiter-Glo), A431 cells. The note with it: Homo sapiens, A-431, 72 hrs, CTG assay, * = average of multiple measurements. How it is done:
as §1, §2, §3, §4, §5, §6

Assay [2] deals with Ba/F3 EGFR-D770-N771ins_SVD (Homo sapiens, UniProt P00533, DUP768-770, cells depend on it). Kind of assay: Cell proliferation assay (CellTiter-Glo), Ba/F3 EGFR-D770-N771ins_SVD cells. The note with it: 72 hrs, CTG assay, * = average of multiple measurements, read-out: Ba/F3 EGFR-D770-N771ins_SVD (nM), IC50 of cell proliferation. The procedure:
as §1, §2, §3, §4, §5, §6

Broadly, the IC50 is the concentration needed to halve the response being measured. A lower IC50 goes with greater potency in that assay.

Chain of Ba/F3 EGFR-D770-N771ins_SVD (P00533 with tags, fused parts or gaps DUP768-770): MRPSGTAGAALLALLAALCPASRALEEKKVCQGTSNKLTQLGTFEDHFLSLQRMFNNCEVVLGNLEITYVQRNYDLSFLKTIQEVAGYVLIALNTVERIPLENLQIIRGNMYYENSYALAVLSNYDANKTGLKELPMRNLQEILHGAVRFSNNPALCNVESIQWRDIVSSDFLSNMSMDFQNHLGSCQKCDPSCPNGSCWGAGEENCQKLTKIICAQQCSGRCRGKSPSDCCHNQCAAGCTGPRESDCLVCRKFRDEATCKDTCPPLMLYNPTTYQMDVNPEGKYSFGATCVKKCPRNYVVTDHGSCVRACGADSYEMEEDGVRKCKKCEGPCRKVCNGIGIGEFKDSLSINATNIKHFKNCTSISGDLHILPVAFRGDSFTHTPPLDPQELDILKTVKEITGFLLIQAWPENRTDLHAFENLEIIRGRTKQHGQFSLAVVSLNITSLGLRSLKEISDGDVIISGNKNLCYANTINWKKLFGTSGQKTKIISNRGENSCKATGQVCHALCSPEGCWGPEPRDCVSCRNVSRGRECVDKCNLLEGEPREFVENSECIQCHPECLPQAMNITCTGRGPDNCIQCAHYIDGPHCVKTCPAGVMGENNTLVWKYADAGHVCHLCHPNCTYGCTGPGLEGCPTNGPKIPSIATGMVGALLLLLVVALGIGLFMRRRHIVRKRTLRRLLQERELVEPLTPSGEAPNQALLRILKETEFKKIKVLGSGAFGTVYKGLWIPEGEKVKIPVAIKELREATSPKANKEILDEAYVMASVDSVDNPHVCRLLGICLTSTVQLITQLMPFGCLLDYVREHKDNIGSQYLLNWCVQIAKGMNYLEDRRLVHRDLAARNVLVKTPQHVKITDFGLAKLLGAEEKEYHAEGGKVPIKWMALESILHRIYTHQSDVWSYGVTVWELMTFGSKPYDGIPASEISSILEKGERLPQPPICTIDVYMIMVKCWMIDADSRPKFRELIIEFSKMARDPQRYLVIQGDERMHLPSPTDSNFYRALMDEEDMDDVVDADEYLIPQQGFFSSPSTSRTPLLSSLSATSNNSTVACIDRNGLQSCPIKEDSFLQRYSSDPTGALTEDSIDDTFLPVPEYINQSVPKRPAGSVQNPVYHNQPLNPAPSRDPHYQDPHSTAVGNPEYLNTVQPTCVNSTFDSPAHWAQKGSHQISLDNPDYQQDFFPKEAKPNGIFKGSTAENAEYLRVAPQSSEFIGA

Take `C=CC(=O)Nc1cc(Nc2cc(N3CC(C)(C)c4ncccc43)ccn2)c(OC)cc1N(C)CCN(C)C` [Example 1, N-(5-((4-(3,3-dimethyl-2,3-dihydro-1H-pyrrolo[3,2-b]pyridin-1-yl)pyridin-2-yl)amino)-2-((2-(dimethylamino)ethyl)(methyl)amino)-4-methoxyphenyl)acrylamide]: the GI50 in assay [1] was determined as 69.8 nM; in assay [2] it was 60.2 nM. Besides, half-maximal inhibition in the assay with A431 (EGFR-WT) (IC50) was put at 898 nM.

`C=CC(=O)Nc1cc(Nc2cc(N3CC(C)(C)c4nc(C)ccc43)ccn2)c(OC)cc1N(C)CCN(C)C` [Example 2, N-(2-((2-(dimethylamino)ethyl) (methyl)amino)-4-methoxy-5-((4-(3,3,5-trimethyl-2,3-dihydro-1H-pyrrolo[3,2-b]pyridin-1-yl)pyridin-2-yl)amino)phenyl)acrylamide]: the results for the GI50 in assay [1] and in assay [2] were 97.9 nM and 60.4 nM, respectively. For the same compound, half-maximal inhibition in the assay on A431 (EGFR-WT) (IC50) required 1070 nM.

With `C=CC(=O)Nc1cc(Nc2cc(N3CC(C)(C)c4nc(C)ccc43)ccn2)c(OC)cc1N1CCC[C@@H]1CN(C)C` [Example 3], the GI50 in assay [1] was found to be 111 nM; in assay [2], 66.3 nM. In the assay with A431 (EGFR-WT), this compound returned an IC50 of 841 nM.

With `C=CC(=O)Nc1cc(Nc2cc(N3CC(C)(C)c4ncccc43)ccn2)c(OC)cc1N1CCC[C@@H]1CN(C)C` [Example 4, (R)-N-(5-((4-(3,3-dimethyl-2,3-dihydro-1H-pyrrolo[3,2-b]pyridin-1-yl)pyridin-2-yl)amino)-2-(2-((dimethylamino)methyl)pyrrolidin-1-yl)-4-methoxyphenyl)acrylamide], the GI50 turned out to be 83.1 nM in assay [1] and 47.2 nM in assay [2]. This compound gave an IC50 in the assay on A431 (EGFR-WT) of 964 nM.

Take `C=CC(=O)Nc1cc(Nc2nccc(N3CC(C)(C)c4nc(C)ccc43)n2)c(OC)cc1N(C)CCN(C)C` [Example 5, N-(2-((2-(dimethylamino)ethyl) (methyl)amino)-4-methoxy-5-((4-(3,3,5-trimethyl-2,3-dihydro-1H-pyrrolo[3,2-b]pyridin-1-yl)pyrimidin-2-yl)amino)phenyl)acrylamide]: the GI50 in assay [1] worked out at 31.4 nM; in assay [2], 26.6 nM. Also, the IC50 in the assay on A431 (EGFR-WT) is 411 nM.

For the compound `C=CC(=O)Nc1cc(Nc2ncnc(N3CC(C)(C)c4nc(C)ccc43)n2)c(OC)cc1N(C)CCN(C)C` [Example 8, N-(2-((2-(dimethylamino)ethyl) (methyl)amino)-4-methoxy-5-((4-(3,3,5-trimethyl-2,3-dihydro-1H-pyrrolo[3,2-b]pyridin-1-yl)-1,3,5-triazin-2-yl)amino)phenyl)acrylamide], the GI50 worked out at 17.9 nM in assay [1] and 12.5 nM in assay [2]. This compound returned an IC50 in the assay on A431 (EGFR-WT) of 71.8 nM.

Take `C=CC(=O)Nc1cc(Nc2cc(N3CC(C)(C)c4nc(C)ccc43)ncn2)c(OC)cc1N(C)CCN(C)C` [Example 11, N-(2-((2-(dimethylamino)ethyl) (methyl)amino)-4-methoxy-5-((6-(3,3,5-trimethyl-2,3-dihydro-1H-pyrrolo[3,2-b]pyridin-1-yl)pyrimidin-4-yl)amino)phenyl)acrylamide]: the results for the GI50 in assay [1] and in assay [2] were 73.9 nM and 40.4 nM, respectively. The compound also came in with an IC50 in the assay with A431 (EGFR-WT) of 293 nM.

On to `C=CC(=O)Nc1cc(Nc2cc(N3CC(C)(C)c4ncccc43)ncn2)c(OC)cc1N1CCC[C@@H]1CN(C)C` [Example 12, (R)-N-(5-((6-(3,3-dimethyl-2,3-dihydro-1H-pyrrolo[3,2-b]pyridin-1-yl)pyrimidin-4-yl)amino)-2-(2-((dimethylamino)methyl)pyrrolidin-1-yl)-4-methoxyphenyl)acrylamide], for which the values for the GI50 in assay [1] and in assay [2] were 70.8 nM and 35.3 nM, respectively. For the same compound, the IC50 in the assay on A431 (EGFR-WT) was determined as 89.9 nM.

For `C=CC(=O)Nc1cc(Nc2cc(N3CC(C)(C)c4nc(C)ccc43)ncn2)c(OC)cc1N1CCC[C@@H]1CN(C)C` [Example 13, (R)-N-(5-((6-(3,3,5-trimethyl-2,3-dihydro-1H-pyrrolo[3,2-b]pyridin-1-yl)pyrimidin-4-yl)amino)-2-(2-((dimethylamino)methyl)pyrrolidin-1-yl)-4-methoxyphenyl)acrylamide], the GI50 in assay [1] worked out at 87.4 nM; in assay [2], 42.1 nM. This compound came in with an IC50 in the assay with A431 (EGFR-WT) of 101 nM.

With `C=CC(=O)Nc1cc(Nc2cc(N3CC(C)(C)c4nc(C)ccc43)ccn2)c(OC)nc1N(C)CCN(C)C` [Example 15, N-(2-((2-(dimethylamino)ethyl) (methyl)amino)-6-methoxy-5-((4-(3,3,5-trimethyl-2,3-dihydro-1H-pyrrolo[3,2-b]pyridin-1-yl)pyridin-2-yl)amino)pyridin-3-yl)acrylamide], the GI50 in assay [1] amounted to 74.8 nM; in assay [2], 37 nM. In the assay with A431 (EGFR-WT), half-maximal inhibition (IC50) was put at 815 nM.

Regarding `C=CC(=O)Nc1cc(Nc2cc(N3CC(C)(C)c4nc(C)c(C)cc43)ncn2)c(OCC)cc1N(C)CCN(C)C` [Example 35, N-(2-((2-(dimethylamino)ethyl) (methyl)amino)-4-ethoxy-5-((6-(3,3,5,6-tetramethyl-2,3-dihydro-1H-pyrrolo[3,2-b]pyridin-1-yl)pyrimidin-4-yl)amino)phenyl)acrylamide], the figures for the GI50 in assay [1] and in assay [2] were 94.8 nM and 40.1 nM, respectively.

`C=CC(=O)Nc1cc(Nc2nccc(N3CC4(CCCCC4)c4nc(C)ccc43)n2)c(OC(F)F)cc1N(C)CCN(C)C` [Example 36, N-(4-(difluoromethoxy)-2-((2-(dimethylamino)ethyl)(methyl)amino)-5-((4-(5′-methylspiro[cyclohexane-1,3′-pyrrolo[3,2-b]pyridin]-1′(2′H)-yl)pyrimidin-2-yl)amino)phenyl)acrylamide]: the GI50 in assay [1] is 51.5 nM; in assay [2] it was 33.2 nM.

`C=CC(=O)Nc1cc(Nc2ncnc(N3CC(C)(C)c4nc(C)ccc43)n2)c(OC(C)C)cc1N(C)CCN(C)C` [Example 37, N-(2-((2-(dimethylamino)ethyl) (methyl)amino)-4-isopropoxy-5-((4-(3,3,5-trimethyl-2,3-dihydro-1H-pyrrolo[3,2-b]pyridin-1-yl)-1,3,5-triazin-2-yl)amino)phenyl)acrylamide]: the GI50 was found to be 159 nM in assay [1] and 92.2 nM in assay [2].

On to `C=CC(=O)Nc1cc(Nc2nccc(N3CC(C)(C)c4nc(C)ccc43)n2)c(OC(C)C)cc1N(C)CCN(C)C` [Example 38, N-(2-((2-(dimethylamino)ethyl) (methyl)amino)-4-isopropoxy-5-((4-(3,3,5-trimethyl-2,3-dihydro-1H-pyrrolo[3,2-b]pyridin-1-yl)pyrimidin-2-yl)amino)phenyl)acrylamide], for which the results for the GI50 in assay [1] and in assay [2] were 266 nM and 124 nM, respectively.

As to `C=CC(=O)Nc1cc(Nc2nccc(N3CC4(CCCC4)c4nc(C)ccc43)n2)c(OCC(F)(F)F)nc1N(C)CCN(C)C` [Example 49, N-(2-((2-(dimethylamino)ethyl) (methyl)amino)-5-((4-(5′-methyl-spiro[cyclopentane-1,3′-pyrrolo[3,2-b]pyridin]-1′(2′H)-yl)pyrimidin-2-yl)amino)-6-(2,2,2-trifluoroethoxy)pyridin-3-yl)acrylamide], inhibition in the assay on A431 (EGFR-WT) was half-maximal at 1020 nM (IC50). For the same compound, in assay [2], the GI50 was found to be 25.2 nM.

Take `C=CC(=O)Nc1cc(Nc2nccc(N3CC(C)(C)c4nc(-n5cncc5C)ccc43)n2)c(OC)cc1N(C)CCN(C)C` [Example 59, N-(5-((4-(3,3-dimethyl-5-(5-methyl-1H-imidazole-1-yl)-2,3-dihydro-1H-pyrrolo[3,2-b]pyridin-1-yl)pyrimidin-2-yl)amino)-2-((2-(dimethylamino)ethyl)(methyl)amino)-4-methoxyphenyl)acrylamide]: the values for the GI50 in assay [1] and in assay [2] were 139 nM and 43.8 nM, respectively.

These data come from patent US20240109885A1, “2,3-DIHYDRO-1H-PYRROLO[3,2-B]PYRIDINE DERIVATIVE, PREPARATION METHOD THEREFOR, AND APPLICATION THEREOF” (Abbisko Therapeutics Co., Ltd, priority 2020, published 2024).
